According to PMC10686834, “Targeting myeloid chemotaxis to reverse prostate cancer therapy resistance” (Nature, 2023):

Tested on: patients with ARSI-resistant mCRPC
Assay: Phase 1 trial of AZD5069 plus enzalutamide: safety and tolerability (DLTs, treatment-emergent adverse events, NCI-CTCAE v.4.0)
Type: in vivo
From the text: The primary trial objective was to evaluate the safety and tolerability of the combination. Key secondary objectives were to evaluate pharmacokinetic–pharmacodynamic parameters and antitumour activity.
Eligible patients were consenting patients aged ≥18 years, who had mCRPC with histologically confirmed prostate adenocarcinoma histology, documented cancer progression at the time of trial entry by Response Evaluation Criteria in Solid Tumors (v.1.1) and/or Prostate Cancer Working Group 2 criteria, and PSA of ≥10 ng ml^−1 at screening.
The dose-escalation phase used a rule-based 3 + 3 design, with an initial three patients enrolled per dose level. If none of the first three patients experienced a DLT, dose escalation proceeded to the next dose level. […] If fewer than two of six patients at any dose level experienced a DLT, dose escalation continued to the next level. If at least two out of up to six patients experienced a DLT, dose escalation stopped and this dose level was defined as the maximum administered dose. Once this maximum administered dose was defined, the maximum tolerated dose (MTD) was confirmed at the dose level below the maximum administered dose. At least six evaluable patients were required to establish the MTD at a specific dose level. […] Intra-patient dose escalation was not permitted. Start of dosing between the first and second patient enrolled to each dose level was staggered by 1 week. Once the MTD was determined in the phase 1 study, the recommended phase 2 dose was determined on the basis of available data, including but not limited to safety and response.
DLTs were defined as described in the study protocol. […] Prophylaxis with growth factor support or antipyretics were not permitted. Investigators determined whether an adverse event was related to the study drugs. If a patient experienced clinically significant and/or unacceptable toxicity, including a DLT, not attributable to the disease or disease-related processes, dosing was interrupted or the dose was reduced and supportive therapy was administered as required.

SMILES: C[C@@H](Oc1cc(NS(=O)(=O)N2CCC2)nc(SCc2cccc(F)c2F)n1)[C@@H](O)CO [AZD5069]
- TEAE Oedema genital, All G (AZD5069 320 mg BD (n=7)): 0 (0) n (%)
- TEAE Oedema genital, G≥3 (AZD5069 320 mg BD (n=7)): 0 (0) n (%)
- TEAE Platelet decreased, All G (AZD5069 320 mg BD (n=7)): 0 (0) n (%)
- TEAE Platelet decreased, G≥3 (AZD5069 320 mg BD (n=7)): 0 (0) n (%)
- TEAE Pruritus, All G (AZD5069 320 mg BD (n=7)): 0 (0) n (%)
- TEAE Pruritus, G≥3 (AZD5069 320 mg BD (n=7)): 0 (0) n (%)
- TEAE Skin infection, All G (AZD5069 320 mg BD (n=7)): 0 (0) n (%)
- TEAE Skin infection, G≥3 (AZD5069 320 mg BD (n=7)): 0 (0) n (%)
- TEAE Vomiting, All G (AZD5069 320 mg BD (n=7)): 0 (0) n (%)
- TEAE Vomiting, G≥3 (AZD5069 320 mg BD (n=7)): 0 (0) n (%)
- TEAE White blood cell decreased, All G (AZD5069 320 mg BD (n=7)): 1 (14) n (%)
- TEAE White blood cell decreased, G≥3 (AZD5069 320 mg BD (n=7)): 0 (0) n (%)
- TEAE Anemia, All G (All patients (n=23)): 4 (17) n (%)
- TEAE Anemia, G≥3 (All patients (n=23)): 1 (4) n (%)
- TEAE Aphasia, All G (All patients (n=23)): 1 (4) n (%)
- TEAE Aphasia, G≥3 (All patients (n=23)): 0 (0) n (%)
- TEAE Arthralgia, All G (All patients (n=23)): 1 (4) n (%)
- TEAE Arthralgia, G≥3 (All patients (n=23)): 0 (0) n (%)
- TEAE Aspartate aminotransferase increased, All G (All patients (n=23)): 1 (4) n (%)
- TEAE Aspartate aminotransferase increased, G≥3 (All patients (n=23)): 0 (0) n (%)
- TEAE Constipation, All G (All patients (n=23)): 2 (9) n (%)
- TEAE Constipation, G≥3 (All patients (n=23)): 0 (0) n (%)
- TEAE Death, All G (All patients (n=23)): 1 (4) n (%)
- TEAE Death, G≥3 (All patients (n=23)): 1 (4) n (%)
- TEAE Decreased appetite, All G (All patients (n=23)): 1 (4) n (%)
- TEAE Decreased appetite, G≥3 (All patients (n=23)): 0 (0) n (%)
- TEAE Diarrhoea, All G (All patients (n=23)): 1 (4) n (%)
- TEAE Diarrhoea, G≥3 (All patients (n=23)): 1 (4) n (%)
- TEAE Dry skin, All G (All patients (n=23)): 1 (4) n (%)
- TEAE Dry skin, G≥3 (All patients (n=23)): 0 (0) n (%)
- TEAE Fatigue, All G (All patients (n=23)): 7 (30) n (%)
- TEAE Fatigue, G≥3 (All patients (n=23)): 0 (0) n (%)
- TEAE Headache, All G (All patients (n=23)): 3 (13) n (%)
- TEAE Headache, G≥3 (All patients (n=23)): 0 (0) n (%)
- TEAE Hypophosphataemia, All G (All patients (n=23)): 1 (4) n (%)
- TEAE Hypophosphataemia, G≥3 (All patients (n=23)): 0 (0) n (%)
- TEAE Nausea, All G (All patients (n=23)): 5 (22) n (%)
- TEAE Nausea, G≥3 (All patients (n=23)): 0 (0) n (%)
- TEAE Neutrophil decreased, All G (All patients (n=23)): 19 (83) n (%)
- TEAE Neutrophil decreased, G≥3 (All patients (n=23)): 11 (48) n (%)
- TEAE Oedema genital, All G (All patients (n=23)): 1 (4) n (%)
- TEAE Oedema genital, G≥3 (All patients (n=23)): 0 (0) n (%)
- TEAE Platelet decreased, All G (All patients (n=23)): 2 (9) n (%)
- TEAE Platelet decreased, G≥3 (All patients (n=23)): 0 (0) n (%)
- TEAE Pruritus, All G (All patients (n=23)): 1 (4) n (%)
- TEAE Pruritus, G≥3 (All patients (n=23)): 0 (0) n (%)
- TEAE Skin infection, All G (All patients (n=23)): 1 (4) n (%)
- TEAE Skin infection, G≥3 (All patients (n=23)): 0 (0) n (%)
- TEAE Vomiting, All G (All patients (n=23)): 1 (4) n (%)
- TEAE Vomiting, G≥3 (All patients (n=23)): 0 (0) n (%)
- TEAE White blood cell decreased, All G (All patients (n=23)): 3 (13) n (%)
- TEAE White blood cell decreased, G≥3 (All patients (n=23)): 0 (0) n (%)
- permanent treatment discontinuation due to treatment-emergent adverse events (all dose levels): no permanent treatment discontinuation
- treatment-emergent anaemia, all grades (all dose levels, 23 patients): 17%
- treatment-emergent anaemia, grade ≥ 3 (all dose levels, 23 patients): 4%
- treatment-emergent constipation, all grades (all dose levels, 23 patients): 9%
- treatment-emergent fatigue, all grades (all dose levels, 23 patients): 30%
- treatment-emergent headache, all grades (all dose levels, 23 patients): 13%
- treatment-emergent leukopaenia, all grades (all dose levels, 23 patients): 13%
- treatment-emergent nausea, all grades (all dose levels, 23 patients): 22%
- treatment-emergent neutropaenia, all grades (all dose levels, 23 patients): 83%
- treatment-emergent neutropaenia, grade ≥ 3 (all dose levels, 23 patients): 48%
- treatment-emergent thrombocytopaenia, all grades (all dose levels, 23 patients): 9%
